Read-outs that look alike come from different tables or passages of the source.
Columns and labels:
[1] = target: FGFR4 (Homo sapiens (Human), UniProt P22455); test: FGFR Enzymatic Assay (FRET peptide phosphorylation), FGFR4; type: biochemical; settings: pre-incubated for 4 hours
Procedure: (§1) The inhibitor potency of the exemplified compounds was measured in an enzyme assay that measures peptide phosphorylation using FRET measurements to detect product formation. Inhibitors were serially diluted in DMSO and a volume of 0.5 μL was transferred to the wells of a 384-well plate.
(§2) The enzymes were purchased from Millipore or Invitrogen.
(§3) GraphPad prism3 was used to analyze the data.

[2] = target: FGFR2 (Homo sapiens (Human), UniProt P21802); test: FGFR Enzymatic Assay (FRET peptide phosphorylation), FGFR2; type: biochemical; settings: pre-incubated for 4 hours
Chain of FGFR2 (P21802 22-821): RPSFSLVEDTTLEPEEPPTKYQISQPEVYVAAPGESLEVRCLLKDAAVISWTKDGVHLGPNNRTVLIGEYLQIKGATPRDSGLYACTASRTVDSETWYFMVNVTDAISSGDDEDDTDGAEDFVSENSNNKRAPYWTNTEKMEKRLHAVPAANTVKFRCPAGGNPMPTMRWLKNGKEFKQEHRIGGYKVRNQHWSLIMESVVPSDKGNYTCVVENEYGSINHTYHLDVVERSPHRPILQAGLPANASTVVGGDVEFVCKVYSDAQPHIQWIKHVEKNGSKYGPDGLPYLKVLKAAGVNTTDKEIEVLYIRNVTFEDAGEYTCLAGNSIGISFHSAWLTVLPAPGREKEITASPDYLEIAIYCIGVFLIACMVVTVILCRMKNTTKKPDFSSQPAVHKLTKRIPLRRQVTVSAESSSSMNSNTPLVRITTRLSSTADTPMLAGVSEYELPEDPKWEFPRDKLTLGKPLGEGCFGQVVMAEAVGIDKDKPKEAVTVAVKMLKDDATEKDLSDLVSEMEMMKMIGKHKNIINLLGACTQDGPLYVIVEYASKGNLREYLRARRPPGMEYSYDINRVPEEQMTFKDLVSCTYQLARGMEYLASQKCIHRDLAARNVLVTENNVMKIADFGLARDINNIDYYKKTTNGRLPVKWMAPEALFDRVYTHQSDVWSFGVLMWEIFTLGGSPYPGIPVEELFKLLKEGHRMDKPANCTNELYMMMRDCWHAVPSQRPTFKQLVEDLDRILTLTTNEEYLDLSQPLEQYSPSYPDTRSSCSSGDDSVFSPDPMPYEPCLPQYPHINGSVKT
Procedure: as §1, §2, §3

[3] = target: FGFR3 enzyme (Homo sapiens (Human), UniProt P22607); test: FGFR Enzymatic Assay (FRET peptide phosphorylation), FGFR3; type: biochemical; settings: pre-incubated for 4 hours; for FGFR1/FGFR3 IC50 ratio / FGFR4/FGFR3 IC50 ratio: FGFR3 selectivity; for IC50: read-out: FGFR3 IC50
Chain of FGFR3 enzyme (P22607 23-806): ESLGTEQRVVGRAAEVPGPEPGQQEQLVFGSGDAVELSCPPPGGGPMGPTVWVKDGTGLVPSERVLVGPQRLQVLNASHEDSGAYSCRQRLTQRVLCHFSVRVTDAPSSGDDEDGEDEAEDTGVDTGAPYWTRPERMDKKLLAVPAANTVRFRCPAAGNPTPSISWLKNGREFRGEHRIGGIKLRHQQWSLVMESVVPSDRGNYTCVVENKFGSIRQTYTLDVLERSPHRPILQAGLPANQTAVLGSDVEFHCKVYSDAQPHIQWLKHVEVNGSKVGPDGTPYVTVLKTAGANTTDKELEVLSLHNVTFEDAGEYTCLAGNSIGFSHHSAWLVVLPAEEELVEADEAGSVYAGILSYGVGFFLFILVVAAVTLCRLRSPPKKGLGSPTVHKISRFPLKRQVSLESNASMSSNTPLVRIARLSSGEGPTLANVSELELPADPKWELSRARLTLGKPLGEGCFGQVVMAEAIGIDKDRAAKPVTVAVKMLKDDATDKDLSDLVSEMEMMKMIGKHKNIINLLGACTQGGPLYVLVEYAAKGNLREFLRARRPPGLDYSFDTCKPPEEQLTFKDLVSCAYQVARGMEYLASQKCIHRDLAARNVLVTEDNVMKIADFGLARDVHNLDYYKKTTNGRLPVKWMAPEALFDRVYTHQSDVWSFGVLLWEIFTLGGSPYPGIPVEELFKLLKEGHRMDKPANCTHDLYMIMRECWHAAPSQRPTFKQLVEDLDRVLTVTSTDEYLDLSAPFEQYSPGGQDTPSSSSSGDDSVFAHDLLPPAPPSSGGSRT
Procedure: as §1, §3

[4] = target: FGFR1 (Homo sapiens (Human), UniProt P11362); test: FGFR Enzymatic Assay (FRET peptide phosphorylation), FGFR1; settings: pre-incubated for 4 hours
Chain of FGFR1 (P11362 22-822): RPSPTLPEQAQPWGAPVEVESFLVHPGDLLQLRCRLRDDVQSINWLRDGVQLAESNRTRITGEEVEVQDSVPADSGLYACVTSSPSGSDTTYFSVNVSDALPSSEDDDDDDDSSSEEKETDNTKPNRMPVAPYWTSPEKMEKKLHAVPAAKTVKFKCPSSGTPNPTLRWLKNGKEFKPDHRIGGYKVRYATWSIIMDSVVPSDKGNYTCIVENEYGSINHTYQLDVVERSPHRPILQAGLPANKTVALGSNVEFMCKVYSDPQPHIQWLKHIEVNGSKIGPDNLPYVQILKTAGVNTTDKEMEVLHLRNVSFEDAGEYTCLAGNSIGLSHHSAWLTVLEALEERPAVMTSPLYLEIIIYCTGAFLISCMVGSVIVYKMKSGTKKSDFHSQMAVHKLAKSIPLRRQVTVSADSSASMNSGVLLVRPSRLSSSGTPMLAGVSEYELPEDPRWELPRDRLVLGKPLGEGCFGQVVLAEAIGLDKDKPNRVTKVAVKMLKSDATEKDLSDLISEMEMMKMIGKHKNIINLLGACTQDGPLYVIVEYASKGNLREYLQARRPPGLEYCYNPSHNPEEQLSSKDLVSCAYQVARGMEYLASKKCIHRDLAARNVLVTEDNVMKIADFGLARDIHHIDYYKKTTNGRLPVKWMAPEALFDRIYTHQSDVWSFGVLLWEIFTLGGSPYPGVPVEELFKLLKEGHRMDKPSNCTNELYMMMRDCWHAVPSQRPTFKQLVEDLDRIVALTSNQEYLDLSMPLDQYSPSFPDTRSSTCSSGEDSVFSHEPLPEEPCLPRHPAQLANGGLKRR

Chain of FGFR4 (P22455 22-802): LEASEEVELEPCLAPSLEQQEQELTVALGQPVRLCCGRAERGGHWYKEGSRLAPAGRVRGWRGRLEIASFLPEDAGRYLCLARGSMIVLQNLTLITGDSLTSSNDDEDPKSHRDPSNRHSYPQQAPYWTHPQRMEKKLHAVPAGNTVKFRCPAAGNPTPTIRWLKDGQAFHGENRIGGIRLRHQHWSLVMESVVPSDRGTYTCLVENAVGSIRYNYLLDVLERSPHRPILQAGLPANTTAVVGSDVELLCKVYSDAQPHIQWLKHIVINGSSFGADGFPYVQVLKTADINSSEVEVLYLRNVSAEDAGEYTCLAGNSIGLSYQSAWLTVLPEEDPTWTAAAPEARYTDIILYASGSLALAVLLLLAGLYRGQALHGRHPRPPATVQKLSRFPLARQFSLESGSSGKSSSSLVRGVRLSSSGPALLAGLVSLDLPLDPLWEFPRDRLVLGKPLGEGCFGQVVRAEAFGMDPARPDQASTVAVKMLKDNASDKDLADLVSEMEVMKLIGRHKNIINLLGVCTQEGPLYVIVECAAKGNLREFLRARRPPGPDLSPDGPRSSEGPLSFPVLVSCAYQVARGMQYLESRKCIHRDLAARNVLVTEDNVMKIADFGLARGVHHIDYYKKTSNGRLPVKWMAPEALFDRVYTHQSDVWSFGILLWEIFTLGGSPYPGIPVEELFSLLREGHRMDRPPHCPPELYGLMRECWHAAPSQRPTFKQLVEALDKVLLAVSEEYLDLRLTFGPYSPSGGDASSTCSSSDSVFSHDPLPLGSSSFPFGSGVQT

SMILES	IC50 [1]	IC50 [2]	FGFR1/FGFR3 IC50 ratio [3]	FGFR4/FGFR3 IC50 ratio [3]	IC50 [3]	IC50 ([4]; FGFR1 IC50 (nM))	IC50 ([4]; read-out: FGFR1 IC50)
COc1cc(OC)c(F)c(N2Cc3cnc(-c4cn(C)nc4C)cc3N(Cc3cnccn3)C2=O)c1F [Example 85, 3-(2,6-difluoro-3,5-dimethoxyphenyl)-7-(1,3-dimethyl-1H-pyrazol-4-yl)-1-(pyrazin-2-ylmethyl)-3,4-dihydropyrido[4,3-d]pyrimidin-2(1H)-one]	30 to 200 nM	10 to 30 nM	>5	>10	< 10 nM	30 to 200 nM	
COc1cc(OC)c(F)c(N2Cc3cnc(-c4cn(C)nc4C)cc3N(c3cncc(C)n3)C2=O)c1F [Example 87, 3-(2,6-difluoro-3,5-dimethoxyphenyl)-7-(1,3-dimethyl-1H-pyrazol-4-yl)-1-(6-methylpyrazin-2-yl)-3,4-dihydropyrido[4,3-d]pyrimidin-2(1H)-one]	30 to 200 nM	< 10 nM	>5	>10	< 10 nM	30 to 200 nM	
COc1cc(OC)c(F)c(N2Cc3cnc(-c4cn(C)nc4C)cc3N(Cc3cccnn3)C2=O)c1F [Example 88, 3-(2,6-difluoro-3,5-dimethoxyphenyl)-7-(1,3-dimethyl-1H-pyrazol-4-yl)-1-(pyridazin-3-ylmethyl)-3,4-dihydropyrido[4,3-d]pyrimidin-2(1H)-one]	< 10 nM	< 10 nM	>5	>10	< 10 nM		< 10 nM
COc1cc(OC)c(F)c(N2Cc3cnc(-c4cn(C)nc4C)cc3N(c3cccc(-c4cnnn4C)c3)C2=O)c1F [Example 89, 3-(2,6-difluoro-3,5-dimethoxyphenyl)-7-(1,3-dimethyl-1H-pyrazol-4-yl)-1-(3-(1-methyl-1H-1,2,3-triazol-5-yl)phenyl)-3,4-dihydropyrido[4,3-d]pyrimidin-2(1H)-one]	30 to 200 nM	< 10 nM	>5	>10	< 10 nM	10 to 30 nM	
COc1cc(OC)c(F)c(N2Cc3cnc(-c4cn(C)nc4C)cc3N(C3(C#N)CC3)C2=O)c1F [Example 91, 1-(3-(2,6-difluoro-3,5-dimethoxyphenyl)-7-(1,3-dimethyl-1H-pyrazol-4-yl)-2-oxo-3,4-dihydropyrido[4,3-d]pyrimidin-1(2H)-yl)cyclopropanecarbonitrile]	30 to 200 nM	< 10 nM	>5	>5	< 10 nM	30 to 200 nM	
COc1cc(OC)c(F)c(N2Cc3cnc(-c4cn(C)nc4C)cc3N(Cc3cc(C(C)C)on3)C2=O)c1F [Example 93, 3-(2,6-difluoro-3,5-dimethoxyphenyl)-7-(1,3-dimethyl-1H-pyrazol-4-yl)-1-((5-isopropylisoxazol-3-yl)methyl)-3,4-dihydropyrido[4,3-d]pyrimidin-2(1H)-one]	30 to 200 nM	< 10 nM	>5	>5	< 10 nM	30 to 200 nM	
COc1cc(OC)c(F)c(N2Cc3cnc(-c4cn(C)nc4C)cc3N(Cc3csc(C)n3)C2=O)c1F [Example 95, 3-(2,6-difluoro-3,5-dimethoxyphenyl)-7-(1,3-dimethyl-1H-pyrazol-4-yl)-1-((2-methylthiazol-4-yl)methyl)-3,4-dihydropyrido[4,3-d]pyrimidin-2(1H)-one]	30 to 200 nM	< 10 nM	>5	>10	< 10 nM	10 to 30 nM	
COc1cc(OC)c(F)c(N2Cc3cnc(-c4cn(C)nc4C)cc3N(c3ccc(CC#N)cc3)C2=O)c1F [Example 97, 2-(4-(3-(2,6-difluoro-3,5-dimethoxyphenyl)-7-(1,3-dimethyl-1H-pyrazol-4-yl)-2-oxo-3,4-dihydropyrido[4,3-d]pyrimidin-1(2H)-yl)phenyl)acetonitrile]	30 to 200 nM	< 10 nM	>5	>10	< 10 nM	30 to 200 nM	
COc1cc(OC)c(F)c(N2Cc3cnc(-c4cn(C)nc4C)cc3N(c3ccc(S(C)(=O)=O)cc3)C2=O)c1F [Example 98, 3-(2,6-difluoro-3,5-dimethoxyphenyl)-7-(1,3-dimethyl-1H-pyrazol-4-yl)-1-(4-(methylsulfonyl)phenyl)-3,4-dihydropyrido[4,3-d]pyrimidin-2(1H)-one]	30 to 200 nM	10 to 30 nM	>5	>10	10 to 30 nM	30 to 200 nM	
COc1cc(OC)c(F)c(N2Cc3cnc(-c4cn(C)nc4C)cc3N(c3cccc(F)c3)C2=O)c1F [Example 99, 3-(2,6-difluoro-3,5-dimethoxyphenyl)-7-(1,3-dimethyl-1H-pyrazol-4-yl)-1-(3-fluorophenyl)-3,4-dihydropyrido[4,3-d]pyrimidin-2(1H)-one]	30 to 200 nM	< 10 nM	>5	>5	< 10 nM	30 to 200 nM	
COc1cc(OC)c(F)c(N2Cc3cnc(-c4cn(C)nc4C)cc3N(c3ccn(C)n3)C2=O)c1F [Example 100, 3-(2,6-difluoro-3,5-dimethoxyphenyl)-7-(1,3-dimethyl-1H-pyrazol-4-yl)-1-(1-methyl-1H-pyrazol-3-yl)-3,4-dihydropyrido[4,3-d]pyrimidin-2(1H)-one]	30 to 200 nM	10 to 30 nM	>5	>5	10 to 30 nM	30 to 200 nM	
COc1cc(OC)c(F)c(N2Cc3cnc(-c4cn(C)nc4C)cc3N(c3ccc(F)c(F)c3)C2=O)c1F [Example 102, 3-(2,6-difluoro-3,5-dimethoxyphenyl)-1-(3,4-difluorophenyl)-7-(1,3-dimethyl-1H-pyrazol-4-yl)-3,4-dihydropyrido[4,3-d]pyrimidin-2(1H)-one]	30 to 200 nM	10 to 30 nM	>3	>10	10 to 30 nM	30 to 200 nM	
COc1cc(OC)c(F)c(N2Cc3cnc(-c4cn(C)nc4C)cc3N(c3cc(F)cc(F)c3)C2=O)c1F [Example 103, 3-(2,6-difluoro-3,5-dimethoxyphenyl)-1-(3,5-difluorophenyl)-7-(1,3-dimethyl-1H-pyrazol-4-yl)-3,4-dihydropyrido[4,3-d]pyrimidin-2(1H)-one]	30 to 200 nM	10 to 30 nM	>3	>5	10 to 30 nM	30 to 200 nM	
COc1ccc(N2C(=O)N(c3c(F)c(OC)cc(OC)c3F)Cc3cnc(-c4cn(C)nc4C)cc32)cc1 [Example 104, 3-(2,6-difluoro-3,5-dimethoxyphenyl)-7-(1,3-dimethyl-1H-pyrazol-4-yl)-1-(4-methoxyphenyl)-3,4-dihydropyrido[4,3-d]pyrimidin-2(1H)-one]	30 to 200 nM	< 10 nM	>3	>5	< 10 nM	10 to 30 nM	

Reference: patent publication US9708318B2, “Bicyclic heterocycles as FGFR4 inhibitors” (Incyte Corporation, priority 2015, dated 2017)
